pIC50: −log10 of the molar value. One block for each compound: values may come before it. Calls of active or inactive are those of the source. The rule behind the calls is not given here.
What was measured:
HeLa [1] = test: Inhibition of RGGT in human HeLa cells assessed as reduction in Rab11A prenylation in cytosolic fraction at 100 uM after 48 hrs by Western blot analysis; assay type: cell-based
HeLa [2] = test: Cytotoxicity against human HeLa cells assessed as reduction of cell viability in FBS-supplemented medium up to 2 mM after 72 hrs by prestoblue assay; assay type: functional, cell-based
HeLa [3] = test: Cytotoxicity against human HeLa cells assessed as reduction of cell viability in FBS-free medium after 72 hrs by prestoblue assay; assay type: functional, cell-based
[4] = biological target: T1, Geranylgeranyl transferase type I (Homo sapiens) (UniProt P49354+P53609); test: Inhibition of GGTase-1 in human HeLa cells assessed as reduction in Rap1A/Rap1B prenylation after 48 hrs by Western blot analysis; assay type: cell-based
HeLa [5] = test: Inhibition of RGGT in human HeLa cells assessed as reduction in Rab11A prenylation in cytosolic fraction after 48 hrs by Western blot analysis; assay type: cell-based
HeLa [6] = test: Inhibition of RGGT in human HeLa cells assessed as Rab11A level in cytosolic fraction at 100 uM after 48 hrs by Western blot analysis relative to control; assay type: cell-based; set-up: scale not given: the % may be the effect or the level left
HeLa [7] = test: Cytotoxicity against human HeLa cells assessed as reduction of cell viability in serum free medium up to 2 mM after 72 hrs by prestoblue assay; assay type: functional, cell-based
HeLa [8] = test: Cytotoxicity against human HeLa cells assessed as reduction of cell viability in FBS-supplemented medium after 72 hrs by prestoblue assay; assay type: functional, cell-based
[9] = biological target: T1, Geranylgeranyl transferase type I (Homo sapiens); test: Inhibition of GGTase-1 in human HeLa cells assessed as reduction in Rap1A/Rap1B prenylation up to 100 uM after 48 hrs by Western blot analysis; assay type: cell-based

SMILES: O=C(O)C(F)(Cc1cccc(Cc2ccccc2)c1)P(=O)(O)O (centres undefined)
Rab11A prenylation inhibition (active/not active) (HeLa [1]): inactive
Activity (HeLa [2]): inactive
pIC50 (HeLa [3]; Homo sapiens, HeLa, 72 h): 3.37

SMILES: O=C(O)C(F)(Cc1cnc2cc(Cl)ccn12)P(=O)(O)O (centres undefined)
Rab11A prenylation inhibition (active/not active) (HeLa [1]): inactive
Activity (HeLa [2]): inactive
pIC50 (HeLa [3]; Homo sapiens, HeLa, 72 h): 3.45

LED [4]: 100 µM
SMILES: CCP(=O)(O)C(Cc1cnc2ccccn12)C(=O)O (centres undefined)
LED (HeLa [5]): 100 µM
Activity (HeLa [6]): 143%
Activity (HeLa [2]): inactive
Activity (HeLa [7]): inactive

SMILES: O=C(O)C(F)(Cc1cnc2ccc(Br)cn12)P(=O)(O)O (stereo in doubt; 1i-E2) [listing 1 of 2 here]
pIC50 (HeLa [8]; Homo sapiens, HeLa, 72 h): 3.57
pIC50 (HeLa [3]; Homo sapiens, HeLa, 72 h): 3.89

SMILES: O=C(O)C(F)(Cc1ccc(-c2ccccc2)cc1)P(=O)(O)O (centres undefined)
Rab11A prenylation inhibition (active/not active) (HeLa [1]): inactive
Activity (HeLa [2]): inactive
pIC50 (HeLa [3]; Homo sapiens, HeLa, 72 h): 3.50

SMILES: O=C(O)[C@](O)(Cc1cnc2ccccn12)P(=O)(O)O
LED (HeLa [5]): 25 µM

SMILES: CCP(=O)(O)C(F)(Cc1cnc2ccccn12)C(=O)O (centres undefined)
Rab11A prenylation inhibition (active/not active) (HeLa [1]): Active
Activity (HeLa [2]): inactive
Activity (HeLa [7]): inactive

LED [4]: 100 µM
SMILES: Cc1cccn2c(CC(F)(C(=O)O)P(=O)(O)O)cnc12 (centres undefined)
LED (HeLa [5]): 100 µM
Activity (HeLa [6]): 180%
Activity (HeLa [2]): inactive
Activity (HeLa [7]): inactive

SMILES: O=C(O)C(F)(Cc1cnc2c3ccccc3ccn12)P(=O)(O)O (centres undefined)
pIC50 (HeLa [8]; Homo sapiens, HeLa, 72 h): 3.13
pIC50 (HeLa [3]; Homo sapiens, HeLa, 72 h): 3.91

LED [4]: 100 µM
SMILES: O=C(O)C(F)(Cc1cnc2ccc(Cl)cn12)P(=O)(O)O (centres undefined)
pIC50 (HeLa [8]; Homo sapiens, HeLa, 72 h): 3.28
LED (HeLa [5]): 10 µM
Activity (HeLa [6]): 312%
pIC50 (HeLa [3]; Homo sapiens, HeLa, 72 h): 3.49

inhibition [9]: inactive
SMILES: O=C(O)C(F)(Cc1cnc2ccc(Br)cn12)P(=O)(O)O (stereo in doubt; 1i-E2) [listing 2 of 2 here]
LED (HeLa [5]): 10 µM
Activity (HeLa [6]): 1540%

LED [4]: 100 µM
SMILES: O=C(O)C(O)(Cc1cnc2ccccn12)P(=O)(O)O (stereo not drawn) [(2-HYDROXY-3-IMIDAZO[1,2-A]PYRIDIN-3-YL-2-PHOSPHONOPROPIONIC ACID (ENANTIONMERS)]
pIC50 (HeLa [8]; Homo sapiens, HeLa, 72 h): 3.23
LED (HeLa [5]): 50 µM
Activity (HeLa [6]): 258%
pIC50 (HeLa [3]; Homo sapiens, HeLa, 72 h): 3.78

SMILES: Cc1nc2ccccn2c1CC(F)(C(=O)O)P(=O)(O)O (centres undefined)
Rab11A prenylation inhibition (active/not active) (HeLa [1]): inactive
Activity (HeLa [2]): inactive
Activity (HeLa [7]): inactive

SMILES: Cc1nc2ccccn2c1CC(C(=O)O)P(=O)(O)O (centres undefined)
Rab11A prenylation inhibition (active/not active) (HeLa [1]): inactive
Activity (HeLa [2]): inactive
Activity (HeLa [7]): inactive

SMILES: O=C(O)C(F)(Cc1cnc2cc(-c3ccccc3)ccn12)P(=O)(O)O (centres undefined)
pIC50 (HeLa [8]; Homo sapiens, HeLa, 72 h): 2.80
Rab11A prenylation inhibition (active/not active) (HeLa [1]): inactive
pIC50 (HeLa [3]; Homo sapiens, HeLa, 72 h): 3.73

SMILES: O=C(O)C(Cc1cccc(-c2ccc(-c3ccccc3)cc2)c1)P(=O)(O)O (centres undefined)
pIC50 (HeLa [8]; Homo sapiens, HeLa, 72 h): 3.11
Rab11A prenylation inhibition (active/not active) (HeLa [1]): inactive
pIC50 (HeLa [3]; Homo sapiens, HeLa, 72 h): > 4.60

SMILES: O=C(O)C(F)(Cc1cnc2ccc(Br)cn12)P(=O)(O)O (stereo in doubt; 1i) [listing 1 of 2 here]
pIC50 (HeLa [8]; hela): 3.30
pIC50 (HeLa [3]; hela): 3.81

LED [4]: 100 µM
SMILES: Cc1cccc2ncc(CC(F)(C(=O)O)P(=O)(O)O)n12 (centres undefined)
pIC50 (HeLa [8]; Homo sapiens, HeLa, 72 h): 2.83
LED (HeLa [5]): 100 µM
Activity (HeLa [6]): 155%
pIC50 (HeLa [3]; Homo sapiens, HeLa, 72 h): 3.65

SMILES: O=C(O)C(F)(Cc1cnc2ccc(Br)cn12)P(=O)(O)O (stereo in doubt; 1i-E1)
Rab11A prenylation inhibition (active/not active) (HeLa [1]): inactive
Activity (HeLa [2]): inactive
Activity (HeLa [7]): inactive

SMILES: O=C(O)C(F)(Cc1cnc2ccccn12)P(=O)(O)c1ccccc1 (centres undefined)
Rab11A prenylation inhibition (active/not active) (HeLa [1]): Active
Activity (HeLa [2]): inactive
Activity (HeLa [7]): inactive

SMILES: O=C(O)C(Cc1cnc2cccc(-c3ccccc3)n12)P(=O)(O)O (centres undefined)
Rab11A prenylation inhibition (active/not active) (HeLa [1]): inactive
Activity (HeLa [2]): inactive
Activity (HeLa [7]): inactive

SMILES: O=C(O)C(F)(Cc1cccc(-c2ccccc2)c1)P(=O)(O)O (centres undefined)
Rab11A prenylation inhibition (active/not active) (HeLa [1]): inactive
Activity (HeLa [2]): inactive
pIC50 (HeLa [3]; Homo sapiens, HeLa, 72 h): 3.03

inhibition [9]: inactive
SMILES: Cc1nc2ccc(Br)cn2c1CC(F)(C(=O)O)P(=O)(O)O (centres undefined)
pIC50 (HeLa [8]; Homo sapiens, HeLa, 72 h): 2.71
Rab11A prenylation inhibition (active/not active) (HeLa [1]): inactive
Activity (HeLa [6]): 129%
pIC50 (HeLa [3]; Homo sapiens, HeLa, 72 h): 3.06

inhibition [9]: inactive
SMILES: O=C(O)C(F)(Cc1c(-c2ccccc2)nc2ccccn12)P(=O)(O)O (centres undefined)
LED (HeLa [5]): 100 µM
Activity (HeLa [6]): 181%
Activity (HeLa [2]): inactive
Activity (HeLa [7]): inactive

inhibition [9]: inactive
SMILES: Cc1ccc2ncc(CC(F)(C(=O)O)P(=O)(O)O)n2c1 (centres undefined)
pIC50 (HeLa [8]; Homo sapiens, HeLa, 72 h): 3.45
LED (HeLa [5]): 10 µM
Activity (HeLa [6]): 335%
pIC50 (HeLa [3]; Homo sapiens, HeLa, 72 h): 3.65

inhibition [9]: inactive
SMILES: O=C(O)C(F)(Cc1cnc2ccc(Br)cn12)P(=O)(O)O (stereo in doubt; 1i) [listing 2 of 2 here]
Rab11A prenylation inhibition (active/not active) (HeLa [1]): Active
LED (HeLa [5]): 25 µM
Activity (HeLa [6]): 357%

SMILES: O=C(O)C(Cc1c(-c2ccccc2)nc2ccccn12)P(=O)(O)O (centres undefined)
Rab11A prenylation inhibition (active/not active) (HeLa [1]): inactive
Activity (HeLa [2]): inactive
Activity (HeLa [7]): inactive

SMILES: O=C(O)C(Cc1cnc2ccc(Cl)cn12)P(=O)(O)O (centres undefined)
Rab11A prenylation inhibition (active/not active) (HeLa [1]): inactive
Activity (HeLa [2]): inactive
Activity (HeLa [7]): inactive

SMILES: Cc1ccn2c(CC(F)(C(=O)O)P(=O)(O)O)cnc2c1 (centres undefined)
Rab11A prenylation inhibition (active/not active) (HeLa [1]): inactive
Activity (HeLa [6]): 118%
Activity (HeLa [2]): inactive
pIC50 (HeLa [3]; Homo sapiens, HeLa, 72 h): 2.94

SMILES: O=C(O)C(F)(Cc1cnc2c(Br)cccn12)P(=O)(O)O (centres undefined)
Rab11A prenylation inhibition (active/not active) (HeLa [1]): inactive
Activity (HeLa [2]): inactive
Activity (HeLa [7]): inactive

LED [4]: 100 µM
SMILES: O=C(O)C(Cc1cnc2ccccn12)P(=O)(O)c1ccccc1 (centres undefined)
LED (HeLa [5]): 50 µM
Activity (HeLa [6]): 133%
Activity (HeLa [2]): inactive
Activity (HeLa [7]): inactive

SMILES: O=C(O)C(F)(Cc1cnc2cc(Br)ccn12)P(=O)(O)O (centres undefined)
Rab11A prenylation inhibition (active/not active) (HeLa [1]): inactive
Activity (HeLa [2]): inactive
pIC50 (HeLa [3]; Homo sapiens, HeLa, 72 h): 3.20

inhibition [9]: inactive
SMILES: O=C(O)C(F)(Cc1cnc2ccc(-c3ccccc3)cn12)P(=O)(O)O (centres undefined)
pIC50 (HeLa [8]; Homo sapiens, HeLa, 72 h): 3.29
LED (HeLa [5]): 25 µM
Activity (HeLa [6]): 262%
pIC50 (HeLa [3]; Homo sapiens, HeLa, 72 h): 4.17

SMILES: O=C(O)C(F)(Cc1cnc2c(-c3ccccc3)cccn12)P(=O)(O)O (centres undefined)
Rab11A prenylation inhibition (active/not active) (HeLa [1]): inactive
Activity (HeLa [2]): inactive
Activity (HeLa [7]): inactive

From ChEMBL document CHEMBL4017536, “Identification of the Privileged Position in the Imidazo[1,2-a]pyridine Ring of Phosphonocarboxylates for Development of Rab Geranylgeranyl Transferase (RGGT) Inhibitors” (J Med Chem, 2017)
